Earlier results, collected in patent US20170298446A1, “BIOMARKERS OF BRUTON TYROSINE KINASE INHIBITOR RESISTANCE” (OHIO STATE INNOVATION FOUNDATION, priority 2014, published 2017).

Target: BTK (Homo sapiens, UniProt Q06187)
Sequence (Q06187 whole entry): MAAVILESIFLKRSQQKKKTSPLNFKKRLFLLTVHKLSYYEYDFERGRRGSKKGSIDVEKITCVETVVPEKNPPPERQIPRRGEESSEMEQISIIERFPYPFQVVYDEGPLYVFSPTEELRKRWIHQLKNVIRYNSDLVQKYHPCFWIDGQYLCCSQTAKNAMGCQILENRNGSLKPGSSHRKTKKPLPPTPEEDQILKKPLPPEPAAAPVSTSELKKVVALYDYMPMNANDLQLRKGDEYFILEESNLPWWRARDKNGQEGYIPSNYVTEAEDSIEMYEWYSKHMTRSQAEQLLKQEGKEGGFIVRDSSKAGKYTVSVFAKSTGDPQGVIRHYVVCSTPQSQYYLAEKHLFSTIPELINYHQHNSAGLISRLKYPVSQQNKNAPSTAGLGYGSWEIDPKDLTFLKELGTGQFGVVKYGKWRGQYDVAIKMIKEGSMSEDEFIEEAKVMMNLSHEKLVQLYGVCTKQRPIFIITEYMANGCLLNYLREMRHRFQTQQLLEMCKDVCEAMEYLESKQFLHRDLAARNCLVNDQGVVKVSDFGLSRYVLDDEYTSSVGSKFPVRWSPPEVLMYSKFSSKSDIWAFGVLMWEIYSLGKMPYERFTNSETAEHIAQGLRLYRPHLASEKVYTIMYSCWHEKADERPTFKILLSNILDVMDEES

CC(C)(C)c1ccc(C(=O)Nc2cccc(-c3cn4ccnc4c(Nc4ccccc4)n3)c2)cc1 [CGI-560, 4-(tert-butyl)-N-(3-(8-(phenylamino)imidazo[1,2-a]pyrazin-6-yl)phenyl)benzamide]
selectivity for BTK: > 10 fold
